This passage reports activity results from article PMC10709440, “High-throughput ligand profile characterization in novel cell lines expressing seven heterologous insect olfactory receptors for the detection of volatile plant biomarkers” (Scientific Reports, 2023).

Assay [1] addresses T1, Drosophila OR98a (Drosophila melanogaster, UniProt Q9VAZ3).
T1 construct: expressed in transfected cells
T1 sequence (Q9VAZ3 1-397): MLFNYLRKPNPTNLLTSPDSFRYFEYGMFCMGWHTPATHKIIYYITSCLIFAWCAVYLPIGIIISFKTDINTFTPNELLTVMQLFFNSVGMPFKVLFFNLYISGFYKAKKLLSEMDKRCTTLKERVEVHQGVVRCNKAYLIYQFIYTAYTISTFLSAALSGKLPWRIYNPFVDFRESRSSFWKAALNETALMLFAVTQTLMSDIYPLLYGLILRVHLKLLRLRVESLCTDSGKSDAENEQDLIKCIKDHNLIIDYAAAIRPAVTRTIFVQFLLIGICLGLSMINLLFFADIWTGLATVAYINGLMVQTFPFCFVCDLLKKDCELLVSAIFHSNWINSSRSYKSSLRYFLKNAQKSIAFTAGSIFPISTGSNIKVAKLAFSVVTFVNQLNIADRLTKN
T1 sequence (Q9VNB5 1-486 partner): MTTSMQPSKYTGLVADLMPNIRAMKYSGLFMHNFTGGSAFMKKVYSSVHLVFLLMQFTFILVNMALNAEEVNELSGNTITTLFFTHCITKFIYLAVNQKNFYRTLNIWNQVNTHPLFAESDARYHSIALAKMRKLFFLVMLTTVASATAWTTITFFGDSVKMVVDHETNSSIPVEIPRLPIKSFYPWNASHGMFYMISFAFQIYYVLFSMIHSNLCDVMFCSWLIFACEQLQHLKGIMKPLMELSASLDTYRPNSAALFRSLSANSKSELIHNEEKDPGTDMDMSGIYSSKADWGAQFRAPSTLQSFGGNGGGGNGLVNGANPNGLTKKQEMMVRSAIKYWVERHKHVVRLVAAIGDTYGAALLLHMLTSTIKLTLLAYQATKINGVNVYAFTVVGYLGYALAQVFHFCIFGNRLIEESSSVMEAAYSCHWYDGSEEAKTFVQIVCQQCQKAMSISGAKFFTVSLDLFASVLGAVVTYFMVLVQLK
The experiment in a line: cell-based. To be noted: HEK293; relative to 50 uM VUAA1 response; below 0.05 set to 0; read-out: % activation. Set-up: GCaMP6 calcium fluorescence in stable HEK293 OR+ORCO lines; peak dF normalised to 50 uM VUAA1 (=1). How it is done:
(§1) Twelve thousand to 18,000 cells were plated into each well of a black wall, transparent bottom 384-well microplate (Greiner) 48 h or 72 h before the measurements and were simultaneously treated with 1 μg/mL doxycycline. Typically, three columns were filled with one OR expressing cell line, each row was treated with the same compound (three technical replicates for each OR), and each responsive VOC-OR combination was measured at least three times on different days. The plate has 24 columns, thus we could record responses in up to eight different cell lines in each plate. On the day of the experiment, the growth medium was replaced with 20 µL assay buffer/well (140 mM NaCl, 5 mM KCl, 2 mM CaCl2, 1 mM MgCl2, 5 mM HEPES-Na, 20 mM glucose, pH 7.3, 340 mOsm). […] Baseline fluorescence (F0) was recorded for 5 s, after which 7 µL VOC buffer (140 mM NaCl, 5 mM KCl, 2 mM CaCl2, 1 mM MgCl2, 5 mM HEPES-Na, 31 mM glucose, 0.1% DMSO, pH 7.3, 340 mOsm) was injected into each well in one row and the fluorescence response was recorded for an additional 30 s, at a rate of one read/sec. VOC solutions (VOC buffer with 4× concentration of the final measured VOC concentration, 9 µL/well was injected) were measured on the same wells in a second round with the same protocol. Each individual concentration of a specific VOC sample was recorded in three wells for the same cell line on the same microplate. The raw data were exported in xls file format, F0 and FMAX values, and the fluorescence intensity changes (∆F) were calculated in Excel (Microsoft) (Supplementary file Data summary.xlsx) using the following equation: ΔF=FMAX-F0/F0 (see also Fig. 1C). On each plate, we recorded the response of each cell line to 50 µM VUAA1. The average of these ∆F values of each cell line were used to calculate the VUAA1-normalized values for the rest of the plate, by dividing VOC response ∆F values by the average VUAA1 response ∆F value of the corresponding OR cell line. Each VOC-OR combination was measured three times as tec The recorded FMAX, F0, ∆F, VUAA1-normalized ∆F values, as well as the OR name, the name of the tested sample, and the final concentration for each well were copied into supplementary file Data summary.xlsx, that was used to summarize all the plates recorded. Here, the averages of the measurements were calculated for each receptor-VOC-concentration combination. […] Each VOC was measured at 1, 10, and 100 µM final concentration on each receptor. VUAA1-normalized response was calculated as described in methods. Values are averages of at least three biological replicates for responsive combinations and two for the non-responsive combinations. The chemical structures of the strong and medium ligands are shown for each cell line. Heat map: white-green colors correspond to the lowest-highest values measured for each cell line.

Assay [2] addresses T2, Drosophila OR49b (Drosophila melanogaster, UniProt Q9V6H2).
T2 construct: expressed in transfected cells
T2 sequence (Q9V6H2 1-375): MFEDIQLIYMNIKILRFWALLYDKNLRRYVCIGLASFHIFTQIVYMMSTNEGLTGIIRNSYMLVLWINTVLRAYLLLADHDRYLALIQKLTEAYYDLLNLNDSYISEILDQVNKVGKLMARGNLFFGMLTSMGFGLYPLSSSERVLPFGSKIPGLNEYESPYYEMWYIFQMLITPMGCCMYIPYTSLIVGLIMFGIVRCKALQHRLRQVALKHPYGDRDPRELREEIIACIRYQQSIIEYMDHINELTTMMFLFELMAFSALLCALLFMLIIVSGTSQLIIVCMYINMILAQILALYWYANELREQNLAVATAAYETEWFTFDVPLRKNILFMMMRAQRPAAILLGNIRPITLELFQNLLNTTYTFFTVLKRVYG
T2 sequence (Q9VNB5 1-486 partner): T1 sequence (Q9VNB5 1-486 partner)
The experiment in a line: cell-based. Set-up: GCaMP6 calcium fluorescence in stable HEK293 OR+ORCO lines; peak dF normalised to 50 uM VUAA1 (=1). To be noted: HEK293; relative to 50 uM VUAA1 response; below 0.05 set to 0; read-out: % activation. As for the experimental part: as §1

Turning to `CC/C=C/CCO` [e3-hexenol], in assay [1], the activity at 1 µM was 0%, the activity at 10 µM is 0% and the activity at 100 µM turned out to be 0%. Also, in assay [2], the activity at 1 µM came to 0%, the activity at 10 µM was determined as 0% and the activity at 100 µM came out at 7.89%.
